Results as given in the Kinase Knowledgebase extract (Sharma et al. 2016).

What was measured:
Test in all cases: Enzyme Assay
PIK3CA (human) = PIK3CA (human) (UniProt P42336)
PIK3CB (Human) = PIK3CB (Human) (UniProt P42338)
PIK3CD (Human) = PIK3CD (Human) (UniProt O00329)
PIK3CG (human) = PIK3CG (human) (UniProt P48736)
Sequence of PIK3CG (human) (P48736 whole entry, looked up): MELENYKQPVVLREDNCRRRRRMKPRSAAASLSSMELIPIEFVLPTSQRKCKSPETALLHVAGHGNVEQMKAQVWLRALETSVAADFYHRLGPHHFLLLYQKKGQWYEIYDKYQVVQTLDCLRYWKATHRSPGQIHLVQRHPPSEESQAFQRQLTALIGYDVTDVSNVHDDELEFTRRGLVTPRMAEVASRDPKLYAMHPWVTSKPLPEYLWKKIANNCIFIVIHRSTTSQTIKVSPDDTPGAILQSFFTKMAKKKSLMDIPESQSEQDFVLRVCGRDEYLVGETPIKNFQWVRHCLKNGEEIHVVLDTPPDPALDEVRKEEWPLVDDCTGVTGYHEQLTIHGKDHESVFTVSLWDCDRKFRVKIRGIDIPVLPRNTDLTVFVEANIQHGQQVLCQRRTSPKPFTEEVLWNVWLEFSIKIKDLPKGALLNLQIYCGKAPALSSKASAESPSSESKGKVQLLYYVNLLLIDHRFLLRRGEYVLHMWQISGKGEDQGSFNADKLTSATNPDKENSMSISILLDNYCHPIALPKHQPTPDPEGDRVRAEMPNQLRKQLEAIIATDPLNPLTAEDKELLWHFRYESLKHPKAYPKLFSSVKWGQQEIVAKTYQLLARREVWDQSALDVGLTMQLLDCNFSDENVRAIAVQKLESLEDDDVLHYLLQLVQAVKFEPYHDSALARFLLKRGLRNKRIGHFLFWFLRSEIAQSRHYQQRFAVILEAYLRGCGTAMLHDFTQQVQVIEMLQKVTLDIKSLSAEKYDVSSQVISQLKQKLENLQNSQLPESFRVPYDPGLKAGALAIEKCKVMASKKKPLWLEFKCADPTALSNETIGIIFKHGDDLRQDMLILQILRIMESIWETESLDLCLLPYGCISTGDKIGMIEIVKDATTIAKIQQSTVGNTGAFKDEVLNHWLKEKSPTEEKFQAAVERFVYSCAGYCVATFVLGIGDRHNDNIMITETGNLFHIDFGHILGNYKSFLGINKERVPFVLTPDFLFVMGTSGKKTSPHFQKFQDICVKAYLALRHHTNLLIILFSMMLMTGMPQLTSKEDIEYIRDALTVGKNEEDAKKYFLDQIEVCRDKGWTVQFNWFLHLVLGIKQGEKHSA

Sequence of PIK3CB (Human) (P42338 whole entry, looked up): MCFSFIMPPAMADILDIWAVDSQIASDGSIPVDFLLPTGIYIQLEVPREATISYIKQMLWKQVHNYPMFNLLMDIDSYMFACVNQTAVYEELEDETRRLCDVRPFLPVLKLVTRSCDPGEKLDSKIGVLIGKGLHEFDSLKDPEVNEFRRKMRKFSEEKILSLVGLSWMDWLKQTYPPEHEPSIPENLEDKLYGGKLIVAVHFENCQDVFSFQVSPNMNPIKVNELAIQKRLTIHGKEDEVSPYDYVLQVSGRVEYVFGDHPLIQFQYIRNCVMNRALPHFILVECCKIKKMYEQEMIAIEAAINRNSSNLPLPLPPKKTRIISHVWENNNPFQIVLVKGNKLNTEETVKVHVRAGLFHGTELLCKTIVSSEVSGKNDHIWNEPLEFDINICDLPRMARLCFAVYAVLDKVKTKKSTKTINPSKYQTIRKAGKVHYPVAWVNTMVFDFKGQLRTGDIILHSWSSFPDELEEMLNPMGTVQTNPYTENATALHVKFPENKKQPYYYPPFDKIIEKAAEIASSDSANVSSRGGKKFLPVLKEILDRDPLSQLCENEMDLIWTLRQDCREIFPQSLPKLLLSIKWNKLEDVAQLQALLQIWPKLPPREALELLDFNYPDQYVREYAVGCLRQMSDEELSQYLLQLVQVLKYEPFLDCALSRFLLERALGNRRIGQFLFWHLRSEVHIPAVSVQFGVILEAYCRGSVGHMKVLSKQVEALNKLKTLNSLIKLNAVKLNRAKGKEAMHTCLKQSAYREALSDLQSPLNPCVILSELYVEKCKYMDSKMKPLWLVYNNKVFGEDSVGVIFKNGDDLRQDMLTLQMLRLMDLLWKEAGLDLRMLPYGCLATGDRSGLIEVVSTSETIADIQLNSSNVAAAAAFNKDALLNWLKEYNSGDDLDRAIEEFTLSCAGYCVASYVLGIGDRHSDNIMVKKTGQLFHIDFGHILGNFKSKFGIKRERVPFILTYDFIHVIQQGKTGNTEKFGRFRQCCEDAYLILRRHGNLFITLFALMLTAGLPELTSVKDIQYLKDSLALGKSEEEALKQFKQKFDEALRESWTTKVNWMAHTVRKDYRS
Sequence of PIK3CD (Human) (O00329 whole entry, looked up): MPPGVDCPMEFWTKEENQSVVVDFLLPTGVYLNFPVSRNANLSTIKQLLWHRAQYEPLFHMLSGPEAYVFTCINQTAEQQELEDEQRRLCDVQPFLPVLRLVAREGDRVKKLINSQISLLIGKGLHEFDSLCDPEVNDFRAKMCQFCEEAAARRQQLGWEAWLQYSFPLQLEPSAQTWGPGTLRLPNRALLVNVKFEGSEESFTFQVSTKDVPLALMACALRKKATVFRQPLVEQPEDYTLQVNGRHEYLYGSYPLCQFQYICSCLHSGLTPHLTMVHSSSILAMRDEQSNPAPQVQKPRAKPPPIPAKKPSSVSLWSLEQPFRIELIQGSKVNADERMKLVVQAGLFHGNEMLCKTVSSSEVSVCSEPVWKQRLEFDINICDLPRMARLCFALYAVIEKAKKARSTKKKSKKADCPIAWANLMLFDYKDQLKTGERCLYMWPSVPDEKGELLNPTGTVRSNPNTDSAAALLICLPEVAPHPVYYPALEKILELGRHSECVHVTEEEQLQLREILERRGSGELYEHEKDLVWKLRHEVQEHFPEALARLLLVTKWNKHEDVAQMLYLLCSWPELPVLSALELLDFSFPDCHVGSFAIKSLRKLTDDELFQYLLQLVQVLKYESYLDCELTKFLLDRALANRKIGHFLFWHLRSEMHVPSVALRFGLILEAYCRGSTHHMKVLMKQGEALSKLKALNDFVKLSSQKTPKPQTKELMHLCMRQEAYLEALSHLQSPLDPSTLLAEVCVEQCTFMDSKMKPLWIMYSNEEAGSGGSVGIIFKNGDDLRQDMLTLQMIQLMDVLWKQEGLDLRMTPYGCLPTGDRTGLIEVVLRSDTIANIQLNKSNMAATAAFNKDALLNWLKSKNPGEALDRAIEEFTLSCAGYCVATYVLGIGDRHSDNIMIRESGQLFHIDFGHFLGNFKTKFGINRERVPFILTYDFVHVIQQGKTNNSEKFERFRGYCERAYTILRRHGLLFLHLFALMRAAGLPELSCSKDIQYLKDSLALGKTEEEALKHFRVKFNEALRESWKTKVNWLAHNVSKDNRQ
Sequence of PIK3CA (human) (P42336 whole entry, looked up): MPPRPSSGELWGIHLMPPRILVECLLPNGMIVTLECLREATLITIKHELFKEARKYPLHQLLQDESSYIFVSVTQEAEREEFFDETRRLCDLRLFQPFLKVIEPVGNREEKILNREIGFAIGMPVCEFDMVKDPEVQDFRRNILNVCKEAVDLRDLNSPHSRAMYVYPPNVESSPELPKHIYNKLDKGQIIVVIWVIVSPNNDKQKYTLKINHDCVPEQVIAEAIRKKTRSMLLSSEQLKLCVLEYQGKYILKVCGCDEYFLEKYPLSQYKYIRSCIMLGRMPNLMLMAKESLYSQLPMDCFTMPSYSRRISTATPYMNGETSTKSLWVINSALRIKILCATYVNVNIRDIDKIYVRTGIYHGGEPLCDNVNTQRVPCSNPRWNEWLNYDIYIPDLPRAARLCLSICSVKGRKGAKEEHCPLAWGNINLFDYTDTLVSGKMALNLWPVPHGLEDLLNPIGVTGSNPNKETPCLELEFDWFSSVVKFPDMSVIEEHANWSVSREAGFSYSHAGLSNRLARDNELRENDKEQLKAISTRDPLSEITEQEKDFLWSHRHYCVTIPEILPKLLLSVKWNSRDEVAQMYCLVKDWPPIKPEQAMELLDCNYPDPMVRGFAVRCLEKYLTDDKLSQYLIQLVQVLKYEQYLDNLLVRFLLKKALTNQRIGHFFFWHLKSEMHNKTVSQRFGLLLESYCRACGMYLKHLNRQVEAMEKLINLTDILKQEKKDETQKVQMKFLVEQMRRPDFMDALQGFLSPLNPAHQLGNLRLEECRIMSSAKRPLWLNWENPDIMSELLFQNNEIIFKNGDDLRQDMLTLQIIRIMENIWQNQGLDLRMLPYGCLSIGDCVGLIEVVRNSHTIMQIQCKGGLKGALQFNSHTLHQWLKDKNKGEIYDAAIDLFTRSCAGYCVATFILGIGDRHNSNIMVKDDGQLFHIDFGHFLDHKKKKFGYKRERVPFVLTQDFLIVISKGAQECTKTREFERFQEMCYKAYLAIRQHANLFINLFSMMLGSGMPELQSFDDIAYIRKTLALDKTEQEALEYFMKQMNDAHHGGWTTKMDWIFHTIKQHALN

Row | IC50 (PIK3CA (human)) [µM] | IC50 (PIK3CB (Human)) [nM] | IC50 (PIK3CD (Human)) [nM] | IC50 (PIK3CG (human)) [µM] | SMILES
1 | 1.07 | > 20000 | > 20000 | – | O=C1NC(=O)/C(=C/c2ccc(-c3ccc(F)cc3O)o2)S1
2 | – | > 10000 | > 10000 | > 10 | C[C@@H]1COCCN1c1cc(=O)n2c(n1)N(Cc1cncc(Cl)c1)[C@H](C(F)(F)F)CC2
3 | 0.91 | 2650 | 5 | > 1000 | Fc1ccc2[nH]ccc2c1-c1nc(N2CCOCC2)c2sc(CN3CCN(CC4CC4)CC3)cc2n1
4 | > 10 | 1100 | 8200 | 0.027 | CC(C)(C)NS(=O)(=O)c1cncc(-c2cc(F)c3nc(N)nn3c2)c1
5 | 1.68 | 62 | 166 | 0.003 | CN(CCO)S(=O)(=O)c1cncc(-c2ccc3nc(NC(=O)NCCc4noc(C(C)(C)C)n4)sc3c2)c1
6 | 61 | 130 | 630 | > 100 | Cc1ccccc1Oc1cccc2c(=O)cc(N3CCOCC3)[nH]c12
7 | 3.96 | – | 1200 | 3.04 | Nc1ncc(-c2ccnc(Nc3ccncc3)n2)c(CC2CC2)n1

Row | SMILES | IC50 (PIK3CA (human)) [µM] | IC50 (PIK3CB (Human)) [nM] | IC50 (PIK3CD (Human)) [nM] | IC50 (PIK3CG (human)) [µM]
8 | CC(C)(O)CNc1ncc(-c2ccnc(Nc3ccnc(Cl)c3)n2)c(CC2CC2)n1 | – | – | – | 2
9 | C[C@H](Nc1ncnc2nc[nH]c12)c1nc2ccc(F)cc2c(=O)n1-c1ccccc1 | 5.44 | – | 12 | 1.39
